Earlier results, collected in article PMC12901815 (Environmental Analysis, Health and Toxicology, 2025).

Conditions: male Alderley Park rats, oral administration; cited from earlier work

For polyaminopropylbiguanide [PHMB], the “tissue distribution of radioactivity” value is given as “the highest radioactivity occurred in adipose tissue, followed by kidneys and liver, without detectable brain accumulation”.
